# From patent publication US12516054B2, “Pyrazolo[1,5-a]pyridine derivatives, preparation method therefor and use thereof” (SHANGHAI DAIDAI INVESTMENT CONSULTING CO., LTD, priority 2019, dated 2026)
# What was measured:
# TT cells = assay: Inhibition of proliferation of tumor cells with abnormal RET (TT cells), CellTiter-Glo; format: cell-based; details: 192 h, TT cells (human MTC, RET C634W), incubated 8 d, read-out: IC50 for inhibition on TT cell proliferation
# Experimental: The following method was used to determine the inhibitory activity of the preferred compound of the present disclosure on the proliferation of TT cells in vitro. TT cells were a human medullary thyroid cancer (MTC) cell line, including the RET C634W mutation. The cell line was purchased from the American ATCC (Cat. No. ATCC® CRL-1803). The cells were cultivated at 37° C. and 5% CO2 with the Ham's F-12K (Kaighn's) medium (purchased from Thermofisher, Gibco, Cat. No. 21127022) that was supplemented with 10% fetal bovine serum (FBS, purchased from Thermofisher, Gibco, Cat. No. 12483-020), 1× Glutamax (purchased from Thermofisher, Gibco, Cat. No. 35050061), 1× non-essential amino acids (purchased from Thermofisher, Gibco, Cat. No. 11140050), and 1× Pen/Strep antibiotics (purchased from Thermofisher, Gibco, Cat. No. 15140122). Cell viability was determined using CellTiter-Glo® Luminescent Cell Viability Assay (Cat. No. G7573) of Promega.
# Brief description of an experimental method: The day before the formal experiment, the cells at the logarithmic growth phase were digested with trypsin (purchased from Thermofisher, Gibco, Cat. No. 25300054), then an appropriate volume of the medium was added to terminate the trypsin reaction, and a resulting mixture was centrifuged at a speed of 1,000 rpm; a resulting supernatant was removed, and fresh medium was added to prepare a cell suspension; and 50 µL of the cell suspension was added to a 96-well cell culture plate (purchased from Corning, Cat. No. 3904) with a cell density of 6,000 cells/well, and then the cell culture plate was incubated overnight at 37° C. and 5% CO2. […] After the incubation was completed, 50 μL of a CellTiter-Glo reagent was added to each well, a resulting mixture was thoroughly shaken and then incubated at room temperature for 10 min in the dark, and then a signal of each well was read on the Envision microplate reader (Perkin Elmer). […]
# [1] = target: GST-hRET kinase (658-1114) (Homo sapiens (Human), UniProt P07949); assay: Inhibitory activity on RET enzyme (HTRF KinEASE-TK); format: biochemical; details: 0.5 nM RET kinase, 10 μM ATP, read-out: IC50 for inhibition on RET enzyme activity
# GST-hRET kinase (658-1114), sequence (P07949 658-1114): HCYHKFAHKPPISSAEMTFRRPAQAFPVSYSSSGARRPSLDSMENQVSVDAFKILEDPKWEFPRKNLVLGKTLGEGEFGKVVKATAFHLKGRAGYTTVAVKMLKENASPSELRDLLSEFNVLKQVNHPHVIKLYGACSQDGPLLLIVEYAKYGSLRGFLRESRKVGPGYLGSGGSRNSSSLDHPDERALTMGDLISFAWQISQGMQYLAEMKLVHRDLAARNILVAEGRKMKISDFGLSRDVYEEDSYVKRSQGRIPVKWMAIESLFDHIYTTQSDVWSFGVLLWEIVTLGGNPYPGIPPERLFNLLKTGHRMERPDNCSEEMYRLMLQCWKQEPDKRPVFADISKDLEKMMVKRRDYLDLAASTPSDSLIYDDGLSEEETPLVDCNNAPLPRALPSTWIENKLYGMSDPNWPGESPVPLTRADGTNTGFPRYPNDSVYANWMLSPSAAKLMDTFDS
# Experimental: 2. Reagent Preparation • (1) 1× enzyme reaction buffer: 5× enzyme reaction buffer was diluted with ultrapure water (UPW) at 4:1, and then 25 nM SEB was added. • (2) 5×RET kinase: RET kinase was diluted with 1× enzyme reaction buffer to 2.5 nM. • (3) 5×ATP: ATP was diluted with 1× enzyme reaction buffer to 50 μM. • (4) 5× substrate: TK substrate-biotin was diluted with 1× enzyme reaction buffer to 2,500 nM. • (5) 2.5× compound: The highest final concentration was 2,500 nm, 3-fold gradient dilution was conducted to obtain 10 dilution points, and a final DMSO concentration was 0.4%. • (6) 4× Steptavidin-XL665: Steptavidin-XL665 was diluted with 1× enzyme reaction buffer to […]. 3. Experimental Process • (1) 5×RET kinase was added to a 384-well plate at 2 μl/well (final concentration of 0.5 nM), and a blank group (enzyme reaction buffer) was set as a negative control. • (2) A 2.5× compound solution was added at 4 μl/well, and then the plate was incubated at room temperature for 30 min. A DMSO group was set as a positive control. • (3) 5× substrate (at 2 μl/well, final concentration: 500 nM) and 5×ATP (at 2 μl/well, final concentration: 10 μM) were added to start a reaction, and the reaction was conducted at room temperature for 30 min. • (4) TK Antibody-Cryptate (at 5 μl/well) and 4× Steptavidin-XL665 (at 5 μl/well, final concentration: […]) were added, and the plate was incubated at room temperature for 60 min. • (5) An HTRF signal was read on Envision. 4. Data Analysis
# The dosage effect (IC50) of the compound with analyzed using the Graph Pad prism software.
SMILES,IC50 (TT cells),IC50 [1]
"COc1ccc(CN2CC=C(c3ccc(-c4cc(-c5cnn(C)c5)cn5ncc(C#N)c45)cn3)CC2)cn1 [Compound 1, 4-(1′-((6-methoxypyridin-3-yl)methyl)-1′,2′,3′,6′-tetrahydro-[2,4′-bipyridin]-5-yl)-6-(1-methyl-1H-pyrazol-4-yl)pyrazolo[1,5-a]pyridine-3-carbonitrile]",28.9 nM,23.1 nM
"COc1ccc(CN2CC=C(c3ccc(-c4cc(OCC(C)(C)O)cn5ncc(C#N)c45)cn3)CC2)cn1 [Compound 2, 6-(2-hydroxy-2-methylpropoxy)-4-(1′-((6-methoxypyridin-3-yl)methyl)-1′,2′,3′,6′-tetrahydro-[2,4′-bipyridin]-5-yl)pyrazolo[1,5-a]pyridine-3-carbonitrile]",,25.4 nM
"COc1ccc(C(=O)N2CC=C(c3ccc(-c4cc(OCC(C)(C)O)cn5ncc(C#N)c45)cn3)CC2)cn1 [Compound 8, 6-(2-hydroxy-2-methylpropoxy)-4-(1′-(6-methoxynicotinoyl)-1′,2′,3′,6′-tetrahydro-[2,4′-bipyridin]-5-yl)pyrazolo[1,5-a]pyridine-3-carbonitrile]",87.8 nM,
"COc1ccc(CN2C3CC2CN(c2ccc(-c4cc(CCC(C)(C)O)cn5ncc(C#N)c45)cn2)C3)cn1 [Compound 10, 6-(3-hydroxy-3-methylbutyl)-4-(6-(6-((6-methoxypyridin-3-yl)methyl)-3,6-diazabicyclo[3.1.1]heptan-3-yl)pyridin-3-yl)pyrazolo[1,5-a]pyridine-3-carbonitrile]",68.6 nM,5.6 nM
